{"source": "the OligoGym collection", "target": "APP", "assay": "mouse, dose not given", "details": "ASO", "note": "HELM strings list units from the 5' end as sugar, base in round brackets, then linkage (d deoxyribose, r ribose, m 2'-O-methyl, p phosphodiester). Strings are as the collection lists them; they lack the last nucleoside at the 3' end of the tested compound. [moe] = 2'-O-(2-methoxyethyl) (MOE); [sp] = phosphorothioate linkage; [m5C] = 5-methylcytosine", "data": [{"substance": "RNA1{[moe](G)[sp].[moe]([m5C])p.[moe](A)p.[moe](T)p.[moe](G)[sp].d(T)[sp].d(T)[sp].d([m5C])[sp].d(A)[sp].d(T)[sp].d(T)[sp].d([m5C])[sp].d(T)[sp].d([m5C])[sp].d(A)[sp].[moe](T)p.[moe]([m5C])p.[moe]([m5C])[sp].[moe]([m5C])}$$$$ (last 3' nucleoside missing)", "values": [{"measurement": "3 h FOB score", "result": 0, "unit": "score 0-7"}]}, {"substance": "RNA1{[moe](G)[sp].[moe]([m5C])p.[moe](A)p.[moe](T)p.[moe](G)[sp].d([m5C])[sp].d([m5C])[sp].d(T)[sp].d(T)[sp].d([m5C])[sp].d([m5C])[sp].d(T)[sp].d([m5C])[sp].d(A)[sp].d(T)[sp].[moe]([m5C])p.[moe]([m5C])p.[moe]([m5C])[sp].[moe]([m5C])}$$$$ (last 3' nucleoside missing)", "values": [{"measurement": "3 h FOB score", "result": 0, "unit": "score 0-7"}]}, {"substance": "RNA1{[moe](G)[sp].[moe]([m5C])p.[moe](A)p.[moe](T)p.[moe](T)[sp].d([m5C])[sp].d(A)[sp].d([m5C])[sp].d(A)[sp].d(A)[sp].d([m5C])[sp].d(A)[sp].d([m5C])[sp].d(A)[sp].d([m5C])[sp].[moe](A)p.[moe](T)p.[moe]([m5C])[sp].[moe]([m5C])}$$$$ (last 3' nucleoside missing)", "values": [{"measurement": "3 h FOB score", "result": 0.67, "unit": "score 0-7"}]}, {"substance": "RNA1{[moe](G)[sp].[moe]([m5C])p.[moe](A)p.[moe](T)p.[moe](T)[sp].d([m5C])[sp].d(T)[sp].d([m5C])[sp].d(T)[sp].d(T)[sp].d(A)[sp].d(T)[sp].d(A)[sp].d(T)[sp].d(T)[sp].[moe]([m5C])p.[moe]([m5C])p.[moe](T)[sp].[moe](T)}$$$$ (last 3' nucleoside missing)", "values": [{"measurement": "3 h FOB score", "result": 0, "unit": "score 0-7"}]}, {"substance": "RNA1{[moe](G)[sp].[moe]([m5C])p.[moe](A)p.[moe](T)p.[moe](T)p.[moe]([m5C])[sp].d(T)[sp].d([m5C])[sp].d(T)[sp].d(T)[sp].d(A)[sp].d(T)[sp].d(A)[sp].d(T)[sp].d(T)[sp].d([m5C])[sp].[moe]([m5C])p.[moe](T)[sp].[moe](T)}$$$$ (last 3' nucleoside missing)", "values": [{"measurement": "3 h FOB score", "result": 1.25, "unit": "score 0-7"}]}, {"substance": "RNA1{[moe](G)[sp].[moe]([m5C])p.[moe](A)p.[moe](T)p.[moe]([m5C])[sp].d(A)[sp].d(G)[sp].d(G)[sp].d([m5C])[sp].d(T)[sp].d(A)[sp].d(A)[sp].d([m5C])[sp].d(A)[sp].d(A)[sp].[moe](G)p.[moe](T)p.[moe](T)[sp].[moe]([m5C])}$$$$ (last 3' nucleoside missing)", "values": [{"measurement": "3 h FOB score", "result": 4, "unit": "score 0-7"}]}, {"substance": "RNA1{[moe](G)[sp].[moe]([m5C])p.[moe](A)p.[moe](T)p.[moe]([m5C])[sp].d(A)[sp].d([m5C])[sp].d(A)[sp].d(A)[sp].d(T)[sp].d(T)[sp].d([m5C])[sp].d(T)[sp].d(T)[sp].d([m5C])[sp].[moe](A)p.[moe](T)p.[moe](T)[sp].[moe](G)}$$$$ (last 3' nucleoside missing)", "values": [{"measurement": "3 h FOB score", "result": 0, "unit": "score 0-7"}]}, {"substance": "RNA1{[moe](G)[sp].[moe]([m5C])p.[moe](A)p.[moe](T)p.[moe]([m5C])[sp].d(A)[sp].d([m5C])[sp].d(T)[sp].d(T)[sp].d(A)[sp].d([m5C])[sp].d(A)[sp].d(A)[sp].d(A)[sp].d([m5C])[sp].[moe](T)p.[moe]([m5C])p.[moe](A)[sp].[moe]([m5C])}$$$$ (last 3' nucleoside missing)", "values": [{"measurement": "3 h FOB score", "result": 0.5, "unit": "score 0-7"}]}, {"substance": "RNA1{[moe](G)[sp].[moe]([m5C])p.[moe](A)p.[moe](T)p.[moe]([m5C])[sp].d(T)[sp].d(T)[sp].d(T)[sp].d(T)[sp].d(A)[sp].d([m5C])[sp].d(T)[sp].d(A)[sp].d(T)[sp].d([m5C])[sp].[moe](T)p.[moe](G)p.[moe]([m5C])[sp].[moe]([m5C])}$$$$ (last 3' nucleoside missing)", "values": [{"measurement": "3 h FOB score", "result": 0, "unit": "score 0-7"}]}, {"substance": "RNA1{[moe](G)[sp].[moe]([m5C])p.[moe](A)p.[moe]([m5C])p.[moe](A)[sp].d(A)[sp].d(A)[sp].d(T)[sp].d(T)[sp].d(T)[sp].d(T)[sp].d(A)[sp].d(T)[sp].d([m5C])[sp].d(A)[sp].[moe]([m5C])p.[moe](A)p.[moe](T)[sp].[moe]([m5C])}$$$$ (last 3' nucleoside missing)", "values": [{"measurement": "3 h FOB score", "result": 0, "unit": "score 0-7"}]}, {"substance": "RNA1{[moe](G)[sp].[moe]([m5C])p.[moe](A)p.[moe]([m5C])p.[moe](A)[sp].d(A)[sp].d(T)[sp].d(T)[sp].d(A)[sp].d(T)[sp].d(T)[sp].d(G)[sp].d(T)[sp].d(T)[sp].d(T)[sp].[moe]([m5C])p.[moe]([m5C])p.[moe](T)[sp].[moe]([m5C])}$$$$ (last 3' nucleoside missing)", "values": [{"measurement": "3 h FOB score", "result": 1, "unit": "score 0-7"}]}, {"substance": "RNA1{[moe](G)[sp].[moe]([m5C])p.[moe](A)p.[moe]([m5C])p.[moe](A)[sp].d(A)[sp].d([m5C])[sp].d(T)[sp].d(T)[sp].d(T)[sp].d(A)[sp].d(T)[sp].d(T)[sp].d(T)[sp].d([m5C])[sp].[moe](T)p.[moe](A)p.[moe](G)[sp].[moe](A)}$$$$ (last 3' nucleoside missing)", "values": [{"measurement": "3 h FOB score", "result": 1, "unit": "score 0-7"}]}, {"substance": "RNA1{[moe](G)[sp].[moe]([m5C])p.[moe](A)p.[moe]([m5C])p.[moe](T)[sp].d(A)[sp].d([m5C])[sp].d(A)[sp].d(T)[sp].d(T)[sp].d(G)[sp].d([m5C])[sp].d(T)[sp].d(T)[sp].d([m5C])[sp].[moe](A)p.[moe](T)p.[moe](A)[sp].[moe]([m5C])}$$$$ (last 3' nucleoside missing)", "values": [{"measurement": "3 h FOB score", "result": 1, "unit": "score 0-7"}]}, {"substance": "RNA1{[moe](G)[sp].[moe]([m5C])p.[moe](A)p.[moe]([m5C])p.[moe]([m5C])[sp].d(A)[sp].d(T)[sp].d([m5C])[sp].d(T)[sp].d(A)[sp].d(T)[sp].d(A)[sp].d(A)[sp].d(T)[sp].d(A)[sp].[moe]([m5C])p.[moe]([m5C])p.[moe](A)[sp].[moe](T)}$$$$ (last 3' nucleoside missing)", "values": [{"measurement": "3 h FOB score", "result": 0, "unit": "score 0-7"}]}, {"substance": "RNA1{[moe](G)[sp].[moe]([m5C])p.[moe](G)p.[moe](G)p.[moe](A)[sp].d([m5C])[sp].d(A)[sp].d(T)[sp].d(A)[sp].d([m5C])[sp].d(T)[sp].d(T)[sp].d([m5C])[sp].d(T)[sp].d(T)[sp].[moe](T)p.[moe](A)p.[moe](G)[sp].[moe]([m5C])}$$$$ (last 3' nucleoside missing)", "values": [{"measurement": "3 h FOB score", "result": 0, "unit": "score 0-7"}]}, {"substance": "RNA1{[moe](G)[sp].[moe]([m5C])p.[moe](G)p.[moe]([m5C])p.[moe](A)[sp].d(T)[sp].d(T)[sp].d(T)[sp].d(A)[sp].d(T)[sp].d(A)[sp].d([m5C])[sp].d(A)[sp].d(A)[sp].d(T)[sp].[moe](A)p.[moe](T)p.[moe](A)[sp].[moe]([m5C])}$$$$ (last 3' nucleoside missing)", "values": [{"measurement": "3 h FOB score", "result": 0, "unit": "score 0-7"}]}, {"substance": "RNA1{[moe](G)[sp].[moe]([m5C])p.[moe](G)p.[moe]([m5C])p.[moe](A)[sp].d(T)[sp].d(T)[sp].d(T)[sp].d(A)[sp].d([m5C])[sp].d(T)[sp].d(A)[sp].d(G)[sp].d([m5C])[sp].d(A)[sp].[moe]([m5C])p.[moe](A)p.[moe](T)[sp].[moe](T)}$$$$ (last 3' nucleoside missing)", "values": [{"measurement": "3 h FOB score", "result": 1.67, "unit": "score 0-7"}]}, {"substance": "RNA1{[moe](G)[sp].[moe]([m5C])p.[moe](T)p.[moe](A)p.[moe](T)[sp].d(G)[sp].d(A)[sp].d([m5C])[sp].d(A)[sp].d(A)[sp].d([m5C])[sp].d(A)[sp].d([m5C])[sp].d([m5C])[sp].d(G)[sp].[moe]([m5C])p.[moe]([m5C])p.[moe]([m5C])[sp].[moe](A)}$$$$ (last 3' nucleoside missing)", "values": [{"measurement": "3 h FOB score", "result": 1, "unit": "score 0-7"}]}]}
